Measurements as given in article PMC3527734, “Peripheral injections of melanin-concentrating hormone receptor 1 antagonist S38151 decrease food intake and body weight in rodent obesity models” (Frontiers in Endocrinology, 2012).
Where two headings read alike, the source gives them in different places. Where a SMILES comes first, the peptide text is derived from it.

Assays:
[1] = stability in mouse plasma; type: in vitro ADME; details: LC-MS/MS, representative of three experiments, read-out: % S38151 remaining
Experimental: First, S38151 was incubated for 16 h at 4°C and 37°C in mouse plasma or in TRIS buffer (pH 7.4). Next, plasma proteins were precipitated with two volumes of acetonitrile. After centrifugation and dilution with a water/acetonitrile mixture (50/50 v/v), the supernatant was injected onto a triple quadripole mass spectrometer (Ultima, Micromass WATERS Corporation, Milford, USA). The liquid chromatographic system consisted of an Agilent 1100 analytic pump (Agilent, Santa Clara, USA) equipped with an Alpha Mos CTC autosampler (Alpha Mos, Toulouse, France). Mass detection was performed using the m/z transition 743.5 > 163, in positive electrospray. A second stability study was performed at a lower concentration (1 μM) and for 4 h, with the following sampling times: 0, 15, 45, 90, and 240 min. At each sampling time, 50 μL of plasma were precipitated with two volumes of acetonitrile, and after centrifugation were directly injected onto the LC-MS/MS system. The same treatment was used for the buffer samples.
Figure 2 Studies regarding the stability of S38151. A solution of S38151 (40 μM) was incubated with either Tris buffer, pH 7.4 (hatched bars), or mouse plasma samples (dark bars) for 16 h at 4°C or 37°C. The samples were analyzed using liquid chromatography coupled to mass spectrometry. Experiments were repeated three times. The chart presented is representative of the experimental results. […]

[2] = test system: Zucker fa/fa rats; experiment: conditioned taste aversion; type: in vivo, rat; details: test days 4, 7, 11, 14 versus control; lithium chloride 75 mg/kg i.p.; S38151 20 nmol/kg i.c.v.; n = 10-11
[3] = test system: ob/ob mice; experiment: daily i.p. S38151 in ob/ob mice; type: in vivo, mouse
Experimental: (§1) In these studies, 13-week-old female C57BL/6J, ob/ob, and MCH1-KO mice were used. The mice were maintained on a 12-h light/dark cycle (lights on at 07:30 and off at 19:30) at 22 ± 3°C, and supplied with food pellets (6 mm diameter A03, UAR Laboratory chow, Epinay Villemuisson France) and tap water ad libitum. To induce obesity in C57BL/6J (creating diet-induced obese, or DIO, mice), mice were fed a high-fat diet (60 kcal% fat, 20 kcal% protein, 20 kcal% carbohydrate, ref D12492 from Research Diets, New Brunswick, NJ08901, USA) for 8 weeks starting at 4 weeks of age. In these experiments, DIO mice, ob/ob mice, and MCH^−/−1 mice were individually housed in a modular chamber that was placed on an activity platform to concurrently measure the food intake, water intake, and activity of the mice (ADDENFI, Les Cordeliers, Paris, France). For at least 2 weeks before experimentation, mice were habituated to a diet of 6 mm diameter food pellets of the following composition: 67.5% food flour, 26.5% sucrose, 5% gum tragacanth, 1.25% magnesium stearate (A03 UAR, Orge, France), and to i.p. injection. After this habituation period, food intake, drink intake, and body weight were measured for 3 consecutive days. The mice were randomized into three groups based on their food and water intake over the three preceding 24-h periods, and on their body weight. Next, the quantity of food eaten over each 24-h period during the 5 days of i.p. treatment with S38151 [10 and 30 mg/kg/day (7 and 20 μmol/kg/day)] or vehicle was determined and corrected for spillage.
Figure 8 The effects of repeated daily S38151 injection on food and water intake, body weight, and motility in ob/ob mice. Genetically modified ob/ob mice were administered S38151 (10 and 30 mg/kg, i.p.) or vehicle (normal saline i.p.) for 6 consecutive days. Results are expressed as mean ± SEM (n = 8 mice per group). White squares for controls, dark squares for 10 mg/kg, and dark triangles for 30 mg/kg.

[4] = test system: MCH1-KO mice; experiment: daily i.p. S38151 in MCH1-KO mice; type: in vivo, mouse
Experimental: as §1
Figure 10 The effects of repeated daily S38151 injection on food and water intake, body weight, and motility in MCHR1-KO mice. MCH1-KO mice were administered S38151 (10 and 30 mg/kg, i.p.) or vehicle (normal saline i.p.) for 5 consecutive days. Results are expressed as mean ± SEM (n = 8 mice per group).

[5] = biological target: MCH1; details: ref Audinot et al., 2009, cited from earlier work; for Kb: full antagonist, CHO cells over-expressing MCH1
Text: S38151 was synthesized during a process that was attempting to find peptides or pseudopeptides with affinity at MCH1 receptor that also had greater stability in biological media. This pseudopeptide is derived from another, very similar agonist, pGua (MCH7-17) (Audinot et al., [2001a], [2009]). […] This activity was specific to MCH1, since it ...

[6] = S38151 10 and 30 mg/kg i.p. daily for 5 days, n = 8

For `CSCC[C@@H]1NC(=O)[C@@H](NC(=O)c2ccc(NC(=N)N)cc2)CSSC[C@@H](C(=O)N[C@@H](Cc2c[nH]c3ccccc23)C(=O)O)NC(=O)[C@@H]2CCCN2C(=O)[C@H](CCCNC(=N)N)NC(=O)[C@H](Cc2ccc(O)cc2)NC(=O)[C@H](C(C)C)NC(=O)[C@H](CCCNC(=N)N)NC(=O)[C@H](CC(C)C)NC1=O` [S38151, p-guanidinobenzoyl-(Des-Gly10)-MCH (7–17)] (HELM PEPTIDE1{[N=C(N)Nc1ccc(C(=O)[*:2])cc1].C.M.L.R.V.Y.R.P.C.W}$PEPTIDE1,PEPTIDE1,2:R3-10:R3$$$V2.0; C-terminus assumed), the remaining at 16 h, 40 μM ([1]; 4°C) was 59%, the remaining at 16 h, 40 μM ([1]; 37°C) was 1.5% and the 0.2% saccharine consumption [2] was “did not affect”. The glycemia and insulinemia ([3]; S38151 30 mg/kg i.p., day 6, data not shown) was “significant reductions”, the body weight ([3]; S38151 10 and 30 mg/kg i.p. daily for 6 days, 30 mg/kg significant at days 1, 4, 5, 6) was “dose-dependent reduction” and the water intake ([3]; S38151 10 and 30 mg/kg i.p. daily for 6 days, same profile as food intake) was “did not reach statistical significance”. The food intake ([3]; S38151 10 and 30 mg/kg i.p. daily for 6 days, significant from day 3 only at 30 mg/kg, n = 8) was “dose-dependent inhibition”, the motility ([4]; S38151 30 mg/kg (20 μmol/kg/day) i.p. daily for 5 days) was “significant reduction” and the body weight [4, 6] was “did not induce any significant effects”. The drink intake [4, 6] was “did not induce any significant effects”, the food intake [4, 6] was “did not induce any significant effects” and the Ki ([5]; [125I]-S36057 binding, Chinese hamster ovary cells over-expressing MCH1) was 80 nM. The Kb ([5]; read-out: KB, GTPγS binding assay) was 4.3 nM and the Kb ([5]; read-out: KB, calcium flux assay) was 210 nM.
